What was measured:
[1] = system: human MPB derived CD34^+ cells; assay: long term repopulating potential (LTRP) in secondary transplanted (2 T) NSG mice; assay type: in vivo; settings: CD34^+ cells cultured 36-42 h and 72-96 h; 6 weeks post 2 T
Text: NOD.Cg-Prkdcscid Il2rgtm1Wjl/SzJ (NSG) mice were purchased from The Jackson Laboratory (Bar Harbor, Me.). All animals were bred and maintained in a specific pathogen-free environment and all experiments were approved by the Institutional Animal Care and Use (IACUC) Committee. Male and female NSG mice aged 8 to 14 weeks old were fed doxycycline chow (TestDiet; Modified Prolab RMH-1500 with 0.0625% doxycycline) a week prior to, during and for 2 weeks post irradiation. Human engraftment was analyzed in bone marrow (BM), via BM aspirates performed at 6 and 12 weeks from left and right femurs. After sacrifice at 24 weeks, marrow from all of the primary mice (1 T) was harvested. Peripheral blood analysis was also performed in some experiments. Secondary transplants (2 T) were performed after mouse CD45^+ cells were depleted from BM harvested from each 1 T mouse separately, using Biotin Rat Anti-Mouse CD45 (BD Biosciences 553078) and Streptavidin Particles Plus-DM (BD Biosciences 557812) and injected into one irradiated (280 cGy) secondary NSG mouse. For calculating competitive repopulating units (CRU) from limiting dilution transplantation, the L-CALC^TM software (Stem Cell Technologies) was used. All of the mice used for this study were randomly assigned to a treatment group. No animals were excluded from the analysis.

[2] = system: CD34^+ cells; assay: total CD34^+ cell number and viability (trypan blue); assay type: cell-based, human; settings: ex vivo culture with/without p38i
Procedure: Freshly isolated CD34^+ cells were used, wherever possible, and especially for 0 h controls. In some experiments cryopreserved CD34^+ cells were thawed for 4 hrs in IMDM containing cytokines, then washed and used for experiments. CD34^+ cells were transduced in X-VIVO 10™ (Lonza) medium supplemented with 2% human serum albumin (Baxter), recombinant human Flt-3 ligand (Flt3-L; 200 ng/mL), stem cell factor (SCF; 300 ng/mL), thrombopoietin (TPO; 100 ng/mL) (all cytokines obtained from PeproTech), and penicillin-streptomycin (ThermoFisher Scientific) on non-tissue culture treated plates coated with retronectin (4 μg/cm2, CH-296, Takara Bio Inc.). For LV transduction, CD34^+ cells (2-5×10^6/mL) were pre-stimulated for 4-8 hours and transduced twice with lentivirus vector (LV) maintaining the vector concentration between 5×10^7 to 1×10^8 infectious unit (IU) per mL of media volume, 12-14 hours apart. Cells were kept in culture for a total of either 18-24 hours, 36-42 hours or 72-96 hours. For RV transduction, human CD34^+ cells were pre-stimulated for ˜2 days (42-48 hours) hours at a cell density of 3×10^5 cells/ml. Retronectin coated tissue culture flasks or plates were preloaded at room temperature with GALV pseudotyped RV twice for one hour each. The vector supernatant was removed and the cells were loaded into the RV loaded retronectin coated flasks. […]

## Cc1ccc(-n2nc(C(C)(C)C)cc2NC(=O)Nc2ccc(OCCN3CCOCC3)c3ccccc23)cc1 [p38i, 1-[5-tert-butyl-2-(4-methylphenyl)pyrazol-3-yl]-3-[4-(2-morpholin-4-ylethoxy)naphthalen-1-yl]urea]
[1]
  LTRP in 2 T mice: restored the LTRP in 2 T mice to levels seen with unmanipulated HSPCs
[2]
  total number of CD34^+ cells, or viability in vitro: no effect
